Square brackets hold non-standard residues; d marks the D form. Ends that are not written are not given here.
Assays:
[1] = tested on: male mice of Kunming strain; test: Analgesic tolerance test (photothermal tail flick); assay type: in vivo, mouse
Procedure: The mice were injected with the drug in the lateral ventricle of the mice for six consecutive days or in the subcutaneous of the mice for eight consecutive days, and their analgesic tolerance were detected by photothermal tail flick method, and the pharmacological activity of the compounds of the present invention in analgesic tolerance was further explored.
In male mice of Kunming strain, the drug was injected continuously in the lateral ventricle for six days, once a day, and the effect of continuous injection of drugs on the pain sensation was detected by a photothermal tail flick instrument. The ambient temperature is controlled at 22±1° C., and the experimental animals are free to eat and drink. The test drug was injected into the lateral ventricle of the mouse for 6 consecutive days, 4 μl per injection. The basic tail flick incubation period (3-5 seconds) was measured before the first day of drug injection, and those mice that were too sensitive or dull were discarded. The tail flick incubation period of 5, 10, 15, 20, 30 min after administration on the first and sixth days was recorded in the experiment. To prevent scald on the tail of the mouse, the maximum tail flick incubation period was set as 10 seconds,
In addition, we further studied the tolerance of subcutaneous administration of compound 9 and morphine in the photothermal tail flick test. The ambient temperature is controlled at 22±1° C., and the experimental animals are free to eat and drink. First, the basic tail flick incubation period (3-5 seconds) of the mice was measured before administration, and then compound 9 or morphine was administered subcutaneously for eight consecutive days. The tail flick incubation period of 10, 15 and 20 minutes after daily administration were recorded. To prevent scald on the tail of the mouse, the maximum tail flick incubation period was set as 10 seconds.
The experimental data is expressed by MPE (maximum possible effect), MPE (%)=100×[(pain threshold after administration−basal pain threshold)/(10 seconds−basal pain threshold)]. The analgesic tolerance of the drug was compared using the MPE value at the time of maximum analgesic effect of the drug. MPE data was expressed as mean±standard error (Means±S.E.M.). The difference in the analgesic effect of continuous administration in the lateral ventricle of the mice for six days was statistically analyzed by the paired T test, and the difference in the analgesic effect of subcutaneous continuous administration for eight days was analyzed by One-way analysis of variance (one-way ANOVA's Tukey HSD test) for statistics, and ***P<0.001 indicates a significant difference from the analgesic effect of the drug injected on the first day.

mice [2] = test: Conditional position preference test (CPP); assay type: in vivo, mouse; details: subcutaneous 10 mg/kg
Procedure: The conditional position preference experimental device is a closed device (45×20×20 cm) assembled from transparent plexiglass plates. Two 20×20×20 cm conditional preference boxes are located at both ends of the device, with a small compartment 5×20×20 cm having a passage (5×5×5 cm) connected in the middle. On the first day of the experiment, the passage was kept open, the mice was placed into the device for 15 min, and the mice that had been explored for more than 9 min in any of the preference boxes were excluded. […] On day 5, the passage was kept opened again to ensure that the mice were free to enter into the two preference boxes, and the time that the mice stayed in the drug matching preference box within 15 minutes of the total time was recorded.
The experimental relevant data were expressed as mean±standard error (Means±S.E.M.), and the conditional position preference score represents the time spent on the drug matching preference box on day 5 of each mouse minus the time on the first day in this preference box. Differences between groups treated with different drugs in CPP trials were analyzed by one-way ANOVA (Tukey HSD test in one-way ANOVA) for data statistics and analysis.

[3] = tested on: gastrointestinal movement of male mice of Kunming strain; test: Gastrointestinal movement in vivo (activated carbon suspension); set-up: species or system mouse; details: 10 mg/kg (compound 9 subcutaneous; morphine positive control)
Procedure: Male mice of Kunming strain, weighing 26±2 g. The commonly used toner detection method was used in the detection of astrointestinal movement in vivo. The specific experimental procedure was: before the gastrointestinal movement experiment, the mice were fasted for 16 hours (free drinking during fasting), then the drug was injected through spinal cord or subcutaneously, and after 15 minutes, the activated carbon suspension prepared in advance (a physiological saline suspension containing 5% of activated carbon and 10% gum arabic) was orally perfused into the stomach in a volume of 0.1 ml per 10 g of body weight. After 30 minutes from the perfusion of activated carbon suspension, the animals were sacrificed by cervical dislocation, and then the small intestine of the animal from the pylorus to the cecum was carefully taken out. The total lengths of the small intestine from the pylorus to the cecum and the furthest distance from which the activated carbon suspension moves were measured.
Gastrointestinal movement test results were evaluated by a percentage of gastrointestinal movement, and the percentage of gastrointestinal movement per mouse was calculated by dividing the moving distance of the activated carbon suspension by the total length of the small intestine. The relevant data were expressed as mean of the percentage of gastrointestinal movement±standard error (Means±S.E.M.), the data for differences between groups treated with different drug concentrations were analyzed by one-way ANOVA (Dunnett test in one-way ANOVA) for statistics and analysis, ***P<0.001 represented that there was a significant difference between the percentage of gastrointestinal movement of the drug-treated group and that of the saline group.

[4] = tested on: CCI-induced neuralgia in mouse; test: Analgesic tolerance and cross-tolerance in CCI-induced neuralgia; assay type: in vivo; details: subcutaneous, seven consecutive days
Procedure: CCI-induced neuralgia in mouse was detected using a PL-200 thermal tingling instrument and an electronic Von Frey tenderness instrument. The thermal pain threshold of one group of normal mice and the mechanical pain threshold of another group of normal mice were first determined. The mice were then anesthetized with sodium pentobarbital 80 mg/kg mouse body weight) and the mice were fixed in the prone position. The right sciatic nerve was exposed and 3 mild ligation rings were made around the sciatic nerve using a 4-0 chromic catgut, 1 mm intervals. The ligation intensity is preferably a slight tremor in the right hind leg. On the 10th day after surgery, the thermal pain sensitivity value and mechanical pain sensitivity value of the right hind paw of the two groups of mice were determined. Compound 9 or morphine was then administered subcutaneously for seven consecutive days, and compound 9 was given to mice in the morphine group on day 8. The thermal tingling and mechanical pain thresholds at different time points after administration were recorded.
The experimental data were expressed as mean±standard error (Means±S.E.M.). Data for differences between groups treated with the same drug were analyzed by one-way ANOVA (Tukey HSD test of one-way ANOVA) for statistics and analysis, *P<0.05. **P<0.01, ***P<0.001 indicates a significant difference between the pain threshold of the drug-treated group and the pain threshold after the First day of administration.

[5] = tested on: movement activity of mice; test: Movement activity, open field experiment; assay type: in vivo, mouse; details: subcutaneous 10 mg/kg
Procedure: The movement activity of the mice was tested by open field experiments. The experimental device is consisted of a 50×50×50 cm topless black plexiglass box and a movement monitoring system. The experiment was carried out in a soundproof environment with an indoor temperature being controlled at 22±1° C. After the experiment was started, the mice were first recorded for free movement within 30 minutes, and then compound 9 or morphine was administered subcutaneously, the movement of the mice was detected for another 150 minutes. Before the experiment for each mouse was started, the whole box was wiped with alcohol as a whole to exclude the residual odor of the previous mouse from affecting the accuracy of the data.
The experimental data were expressed as mean±standard error (Means±S.E.M.), and the data for differences between groups treated with different drugs were analyzed by one-way ANOVA (Bonferroni test in one-way ANOVA) for statistics and analysis, ***P<0.001 represents that there was a significant difference between the movement activity of the drug-treated group and that of the saline group.

mice [6] = test: Naloxone withdrawal test; assay type: in vivo, mouse; details: s.c. at 8 hours intervals 20, 40, 60, 80, 100, 100, 100 mg/kg; naloxone 1 mg/kg; 30 minutes
[7] = tested on: CFA-induced inflammatory pain in mouse; test: Analgesic tolerance and cross-tolerance in CFA-induced inflammatory pain; assay type: in vivo; details: mechanical pain, lateral ventricle 6 days or subcutaneous 7 days
Procedure: CFA-induced inflammatory pain in mouse was detected by an electronic Von Frey tenderness instrument, and the basal pain threshold of normal mice was Firstly determined. Then […] of CFA solution was injected subcutaneously into the mouse paw. After 4 days, the mechanical pain sensitivity value of the injected paw of the mouse was measured. And then compound 9 or morphine was injected for 6 consecutive days (lateral ventricle) or 7 consecutive days (subcutaneously), and the mice in morphine group were given compound 9 on day 7 (lateral ventricle) or day 8 (subcutaneous). The mechanical pain thresholds at different time points after administration were recorded.
The experimental data were expressed as mean± standard error (Means±S.E.M.). Data for differences between groups treated with the same drug were analyzed by one-way ANOVA (Tukey HSD test of one-way ANOVA) for statistics and analysis, *P<0.05. **P<0.005, ***P<0.001 indicates a significant difference between the mechanical pain threshold of the drug-treated group and the pain threshold after the first day of administration.

[8] = tested on: acute pain caused by photothermal therapy in male mice of Kunming strain; details: mouse tail flick, lateral ventricle; from ZL201210098832.2; cited from earlier work
[9] = tested on: formalin-induced pain mice; details: lateral ventricle; Br J Pharmacol 2016; cited from earlier work
[10] = lateral ventricle injection, once a day, morphine 4 nmol

Compound	analgesic tolerance ([1]; eight consecutive days subcutaneous, 10 mg/kg)	analgesic effect (MPE) after six days of continuous injection [1, 10] [%]	analgesic effect (MPE) on the first day [1, 10] [%]	analgesic tolerance ([1]; six consecutive days lateral ventricle injection, compounds at 3 times ED50, morphine 4 nmol)	conditional positional preference (mice [2])	percentage of gastrointestinal movement [3] [%]	analgesic tolerance on continuous injection, mechanical pain sensitivity [4]	analgesic tolerance on continuous injection, thermal sensitivity pain [4]	total distance of movement [5] [m]	average number of jumps after naloxone withdrawal (mice [6])	analgesic tolerance on continuous injection [7]	analgesic ED50 value of BN-9 [8] [nmol]	analgesic ED50 value of BN-9, formalin first phase pain [9] [nmol]	analgesic ED50 value of BN-9, formalin second phase pain [9] [nmol]
CN1CC[C@]23c4c5ccc(O)c4O[C@H]2[C@@H](O)C=C[C@H]3[C@H]1C5 [morphine, reference compound]	significantly reduced from day 4	36.15	86.97	can significantly cause analgesia tolerance	produced significant conditional positional preference	16.92	from the fourth day	from the third day	439.73	47	significantly reduced from the fourth day			
Tyr-D-Ala-Gly-Phe-Gln-Pro-Gln-Arg-Phe-NH2 (Y[dA]GFQPQRF-NH2) [BN-9]												0.39	0.12	1.14

— patent publication US11167006B2 (Shanghai Tianci Life Science Development Co., Ltd., priority 2016, dated 2021)
